Experimental data as given in patent US20020137929A1, “1 - (3-heterocyclylphenyl) isothiourea, -isourea, -guanidine and -amidine herbicidal agents” (Intellectual Property Department, BASF Aktiengesellschaft, priority 1998, published 2002).

Assays:
[1] = test system: MOOVA (Monochoria); assay: Preemergence weed control under flooded paddy conditions; assay type: in vivo, Monochoria vaginalis; conditions: rated 3-4 weeks after treatment
How it was run: (§1)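 Values are visual 0-9 scores against a control for a preemergence application into paddy flood water at about 0.0313 to 0.500 kg/ha. Greenhouse duration was three to four weeks.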

[2] = test system: CHEAL (Lambsquarters, Common); assay: Postemergence herbicidal evaluation; assay type: in vivo, Chenopodium album; conditions: postemergence
How it was run: (§2)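 Compound is applied as a foliar spray to seedlings about two weeks old, formulated in equal parts acetone and water with 0.5% TWEEN 20 and delivered at 40 psi to give about 0.0156–0.500 kg per hectare. Injury is rated visually 0–9 after four to five weeks.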

[3] = test system: ECHCG (Barnyardgrass); assay: Postemergence herbicidal evaluation; assay type: in vivo, Echinochloa crus-galli; conditions: postemergence
How it was run: as §2

[4] = test system: CASOB (Sicklepod); assay: Postemergence herbicidal evaluation; assay type: in vivo, Cassia obtusifolia; conditions: postemergence
How it was run: as §2

[5] = test system: TRZAWR (Wheat, Winter, cv Riband); assay: Preemergence herbicidal evaluation; assay type: in vivo, Triticum aestivum; conditions: rated 4-5 weeks after treatment, rating scale 0-9
How it was run: (§3)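 Scores (0–9) reflect visual comparison with control plants for stand, vigor, malformation, size and chlorosis. Compound was applied to the soil after sowing, before emergence, as an aqueous acetone spray (about 0.0156–0.500 kg/ha), and cups were kept in a greenhouse for 4–5 weeks.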

[6] = test system: ZEAMX (Corn, Field); assay: Preemergence herbicidal evaluation; assay type: in vivo, Zea mays; conditions: rated 4-5 weeks after treatment, rating scale 0-9
How it was run: as §3

[7] = test system: ORYSAT (Rice, Tebonnet); assay: Preemergence herbicidal evaluation; assay type: in vivo, Oryza sativa, (L.) Tebonnet; conditions: rated 4-5 weeks after treatment, rating scale 0-9
How it was run: as §3

[8] = test system: GALAP (Galium); assay: Preemergence herbicidal evaluation; assay type: in vivo, Galium aparine; conditions: rated 4-5 weeks after treatment, rating scale 0-9
How it was run: as §3

[9] = test system: CYPIR (Rice Flatsedge); assay: Preemergence weed control under flooded paddy conditions; assay type: in vivo, Cyperus iria; conditions: rated 3-4 weeks after treatment
How it was run: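 Silt loam, seeds in top 0.5 cm; flood held 1.5-3 cm; test cpd as acetone/water 50/50 into flood water, ~0.0313-0.500 kg/ha a.i.; greenhouse 3-4 wk; visual 0-9 score vs control.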

[10] = test system: ORYSAT (Rice, Tebonnet); assay: Postemergence herbicidal evaluation; assay type: in vivo, Oryza sativa, (L.) Tebonnet; conditions: postemergence
How it was run: as §2

[11] = test system: SETVI (Foxtail, Green); assay: Preemergence herbicidal evaluation; assay type: in vivo, Setaria viridis; conditions: rated 4-5 weeks after treatment, rating scale 0-9
How it was run: as §3

[12] = test system: GLXMAW (Soybean, Williams); assay: Preemergence herbicidal evaluation; assay type: in vivo, Glycine max, (L.) Merr. cv Williams; conditions: rated 4-5 weeks after treatment, rating scale 0-9
How it was run: as §3

[13] = test system: SAGPY (Arrowhead (Pygmaea)); assay: Preemergence weed control under flooded paddy conditions; assay type: in vivo, Sagittaria pygmaea; conditions: rated 3-4 weeks after treatment
How it was run: as §1

Cn1c(C(F)(F)F)cc(=O)n(-c2cc(N=C3SCC(=O)N3Cc3cccc(Cl)c3)c(Cl)cc2F)c1=O [Compound 136, 3-{4-Chloro-5-{[3-(m-chlorobenzyl)-4-oxo-2-thiazolidinylidene]amino}-2-fluorophenyl}-1-methyl-6-(trifluoromethyl)-2,4(1H,3H)-pyrimidinedione]
herbicidal effect rating, MOOVA ([1]; 0.0313 kg/ha): 3.0
herbicidal effect rating, MOOVA ([1]; 0.0625 kg/ha): 4.0
herbicidal effect rating, MOOVA ([1]; 0.1250 kg/ha): 9.0
herbicidal effect rating, MOOVA ([1]; 0.2500 kg/ha): 9.0
Herbicidal rating CHEAL ([2]; rate 0.0156 kg/ha): 9.0
Herbicidal rating CHEAL ([2]; rate 0.0313 kg/ha): 9.0
Herbicidal rating CHEAL ([2]; rate 0.0625 kg/ha): 9.0
Herbicidal rating ECHCG ([3]; rate 0.0156 kg/ha): 2.0
Herbicidal rating ECHCG ([3]; rate 0.0313 kg/ha): 3.0
Herbicidal rating ECHCG ([3]; rate 0.0625 kg/ha): 3.0
Herbicidal rating CASOB ([4]; rate 0.0156 kg/ha): 1.0
Herbicidal rating CASOB ([4]; rate 0.0313 kg/ha): 4.0
Herbicidal rating CASOB ([4]; rate 0.0625 kg/ha): 7.0
Preemergence herbicidal rating TRZAWR ([5]; rate 0.0156 kg/ha): 0.0
Preemergence herbicidal rating TRZAWR ([5]; rate 0.0313 kg/ha): 0.0
Preemergence herbicidal rating TRZAWR ([5]; rate 0.0625 kg/ha): 0.0
Preemergence herbicidal rating TRZAWR ([5]; rate 0.1250 kg/ha): 1.0
Preemergence herbicidal rating TRZAWR ([5]; rate 0.2500 kg/ha): 1.0
Preemergence herbicidal rating ZEAMX ([6]; rate 0.0156 kg/ha): 0.0
Preemergence herbicidal rating ZEAMX ([6]; rate 0.0313 kg/ha): 0.0
Preemergence herbicidal rating ZEAMX ([6]; rate 0.0625 kg/ha): 0.0
Preemergence herbicidal rating ZEAMX ([6]; rate 0.1250 kg/ha): 1.0
Preemergence herbicidal rating ZEAMX ([6]; rate 0.2500 kg/ha): 3.0
Preemergence herbicidal rating ORYSAT ([7]; rate 0.0156 kg/ha): 0.0
Preemergence herbicidal rating ORYSAT ([7]; rate 0.0313 kg/ha): 0.0
Preemergence herbicidal rating ORYSAT ([7]; rate 0.0625 kg/ha): 0.0
Preemergence herbicidal rating ORYSAT ([7]; rate 0.1250 kg/ha): 1.0
Preemergence herbicidal rating ORYSAT ([7]; rate 0.2500 kg/ha): 1.0
Preemergence herbicidal rating GALAP ([8]; rate 0.0156 kg/ha): 0.0
Preemergence herbicidal rating GALAP ([8]; rate 0.0313 kg/ha): 0.0
Preemergence herbicidal rating GALAP ([8]; rate 0.0625 kg/ha): 1.0
Preemergence herbicidal rating GALAP ([8]; rate 0.1250 kg/ha): 2.0
Preemergence herbicidal rating GALAP ([8]; rate 0.2500 kg/ha): 3.0
herbicidal effect rating, CYPIR ([9]; 0.0313 kg/ha): 0.0
herbicidal effect rating, CYPIR ([9]; 0.0625 kg/ha): 5.0
herbicidal effect rating, CYPIR ([9]; 0.1250 kg/ha): 6.0
herbicidal effect rating, CYPIR ([9]; 0.2500 kg/ha): 7.0
Herbicidal rating ORYSAT ([10]; rate 0.0156 kg/ha): 2.5
Herbicidal rating ORYSAT ([10]; rate 0.0313 kg/ha): 3.0
Herbicidal rating ORYSAT ([10]; rate 0.0625 kg/ha): 2.5
Preemergence herbicidal rating SETVI ([11]; rate 0.0156 kg/ha): 0.0
Preemergence herbicidal rating SETVI ([11]; rate 0.0313 kg/ha): 0.0
Preemergence herbicidal rating SETVI ([11]; rate 0.0625 kg/ha): 2.0
Preemergence herbicidal rating SETVI ([11]; rate 0.1250 kg/ha): 4.0
Preemergence herbicidal rating SETVI ([11]; rate 0.2500 kg/ha): 7.0
Preemergence herbicidal rating GLXMAW ([12]; rate 0.0156 kg/ha): 0.0
Preemergence herbicidal rating GLXMAW ([12]; rate 0.0313 kg/ha): 0.0
Preemergence herbicidal rating GLXMAW ([12]; rate 0.0625 kg/ha): 0.0
Preemergence herbicidal rating GLXMAW ([12]; rate 0.1250 kg/ha): 1.0
Preemergence herbicidal rating GLXMAW ([12]; rate 0.2500 kg/ha): 2.0
herbicidal effect rating, SAGPY ([13]; 0.0313 kg/ha): 0.0
herbicidal effect rating, SAGPY ([13]; 0.0625 kg/ha): 0.0
herbicidal effect rating, SAGPY ([13]; 0.1250 kg/ha): 3.0
herbicidal effect rating, SAGPY ([13]; 0.2500 kg/ha): 3.0
